Measurements taken from ChEMBL document CHEMBL1201862, “PubChem BioAssay data set” (2004).
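All cell lines were grown in 96-well plates and treated with compound for 48 hours. GI50 is the concentration that inhibits growth by half.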 Activity calls are given as the source filed them. No stated cut-off is given here; in the data, active = GI50 up to about 1.1 µM and inactive = higher.

Columns and labels:
Assay in all cases: growth of human tumour cells (NCI), 48 h
[1] = test system: A549
[2] = test system: 786-0
[3] = test system: RXF 393
[4] = test system: HOP-92
[5] = test system: Malme-3M
[6] = test system: MOLT-4
[7] = test system: UACC-62
[8] = test system: SW-620
[9] = test system: TK-10
[10] = test system: SK-MEL-2
[11] = test system: HOP-62
[12] = test system: UACC-257
[13] = test system: LOX IMVI
[14] = test system: SF-295
[15] = test system: HCC 2998
[16] = test system: A498
[17] = test system: KM12

Measured: GI50

COc1ccc(C2c3cc4c(cc3OC(O)(CO)C2C(=O)O)OCO4)c(OC)c1OC.COc1ccc(C2c3cc4c(cc3OC3(O)COC(=O)C23)OCO4)c(OC)c1OC (centres undefined)
inactive: [1] > 100 µM | [2] > 100 µM | [3] 74 µM | [4] 29.2 µM | [5] > 100 µM | [6] > 100 µM | [7] > 100 µM | [8] > 100 µM | [9] > 100 µM | [10] > 100 µM | [11] > 100 µM | [12] > 100 µM | [13] > 100 µM | [14] > 100 µM

CCOC(=O)C1=C(C(=O)OCC)C2c3ccccc3C=CN2C(C(=O)OCC)=C(SC)S1 (centres undefined)
inactive: [1] 47.6 µM | [2] > 100 µM | [3] 73.1 µM | [5] > 100 µM | [6] 21.6 µM | [7] 58.1 µM | [8] 92.9 µM | [9] > 100 µM | [10] > 100 µM | [11] > 100 µM | [15] > 100 µM | [12] 42.5 µM | [13] 97.3 µM | [14] > 100 µM

Cc1ns/c(=N\C(=S)N(C)C)n1C
inactive: [1] > 100 µM | [2] > 100 µM | [3] > 100 µM | [4] > 100 µM | [5] > 100 µM | [6] > 100 µM | [7] > 100 µM | [8] > 100 µM | [9] > 100 µM | [16] > 100 µM | [10] > 100 µM | [11] > 100 µM | [15] > 100 µM | [12] > 100 µM | [14] > 100 µM | [17] > 100 µM

CC(C)(C)c1cc(Cc2ccc([N+](C)(C)C)cc2)c(O)c(C(C)(C)C)c1
inactive: [1] 33.9 µM | [2] 24.2 µM | [3] 16.4 µM | [5] 17.9 µM | [6] 11.8 µM | [7] 14.3 µM | [8] 23.2 µM | [9] 24.6 µM | [16] 53 µM | [10] 16.5 µM | [11] 16.6 µM | [15] 15.7 µM | [12] 17 µM | [13] 16.4 µM | [14] 26.3 µM | [17] 15.7 µM

Cc1cccc2[n+]1[C@H]1[C@H]([C@@H]3O[C@H]1c1ccccc13)[S+]([O-])N2 (some centres undefined)
inactive: [1] 63.2 µM | [2] > 100 µM | [3] 89.1 µM | [4] 11.9 µM | [5] 28.6 µM | [6] 38.2 µM | [8] > 100 µM | [9] 90.4 µM | [16] 93.3 µM | [10] 25.2 µM | [11] 48.1 µM | [15] 72.8 µM | [12] 32.5 µM | [13] 25.9 µM | [14] 59.8 µM | [17] 42.4 µM

CC(=O)N1C/C(=C\c2ccc(N(C)C)cc2)C(=O)/C(=C/c2ccc(N(C)C)cc2)C1
inactive: [1] > 100 µM | [2] 39.4 µM | [3] 41.6 µM | [4] > 100 µM | [5] 75.7 µM | [6] 51.4 µM | [7] 30.1 µM | [8] 41.5 µM | [9] 75.7 µM | [16] 33.5 µM | [11] > 100 µM | [15] 58.2 µM | [12] 47.4 µM | [13] 35.3 µM | [14] 52.6 µM | [17] 35.7 µM

NCCCNCCSSCCCCS(=O)O
inactive: [1] 59.8 µM | [2] > 100 µM | [3] 30.3 µM | [4] > 100 µM | [5] 20.3 µM | [6] 5.09 µM | [7] 15.7 µM | [8] 30.4 µM | [9] > 100 µM | [16] > 100 µM | [11] > 100 µM | [15] > 100 µM | [12] 17.2 µM | [13] 8.32 µM | [14] 36.2 µM | [17] > 10 µM

CN(C)C(c1ccccc1)C(O)c1ccccc1 (centres undefined)
inactive: [1] > 100 µM | [2] > 100 µM | [3] > 100 µM | [5] > 100 µM | [6] > 100 µM | [7] > 100 µM | [8] > 100 µM | [9] > 100 µM | [16] > 100 µM | [10] > 100 µM | [11] > 100 µM | [15] > 100 µM | [12] > 100 µM | [13] > 100 µM | [14] > 100 µM | [17] > 100 µM
